Biological target: T1, human c-Met (Homo sapiens, UniProt P08581)
T1 construct: Recombinant GST-tagged cytosolic domains of human c-Met; 6xHis; made in house; host or cells: Sf9 or Sf21 insect cells (baculovirus)
Experiment: in vitro kinase assay (homogeneous time-resolved tyrosine kinase assay, METKA)
Format: biochemical
Conditions: recombinant GST-tagged c-Met cytosolic domain, HTRF, 50 μM MgATP; read-out: Biological Activity (METKA IC50) Activity Code
How it was run: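 HTRF assay with GST-tagged cytosolic c-Met domain (0.2 nM), 0.5 μM biotinylated peptide, 50 μM MgATP, pH 7.4, 5% DMSO, 80 min at room temperature; Eu-anti-pTyr/SA-APC detection, IC50 by 4-parameter fit. Other kinases identical except enzyme level: mouse c-Met 0.2, Ron 2.5, KDR 8, IGFR 0.24, EGFR 0.24, FGFR 0.14, Mer 16, TrkA 8, Tie2 8 nM.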

T1 sequence (P08581 956-1390 limits assumed): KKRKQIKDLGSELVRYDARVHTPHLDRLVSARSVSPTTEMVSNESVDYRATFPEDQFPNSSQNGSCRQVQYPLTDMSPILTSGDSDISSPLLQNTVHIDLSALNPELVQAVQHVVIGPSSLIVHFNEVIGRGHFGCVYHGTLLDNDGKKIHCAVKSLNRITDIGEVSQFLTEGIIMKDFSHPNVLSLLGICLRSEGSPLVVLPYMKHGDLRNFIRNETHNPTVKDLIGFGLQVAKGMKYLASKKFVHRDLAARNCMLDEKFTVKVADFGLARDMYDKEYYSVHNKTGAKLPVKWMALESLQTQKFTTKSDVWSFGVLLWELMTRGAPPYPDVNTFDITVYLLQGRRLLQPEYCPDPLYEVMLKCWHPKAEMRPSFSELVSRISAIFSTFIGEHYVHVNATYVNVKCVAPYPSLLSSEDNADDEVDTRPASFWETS

**Q.** Which IC50 does the source give for CCn1cc(-n2ccc(=O)c(COc3ccc4ncc(-c5cnn(CCOC)c5)cc4c3)n2)cn1 [Example 77, 1-(1-ethyl-1H-pyrazol-4-yl)-3-[({3-[1-(2-methoxyethyl)-1H-pyrazol-4-yl]quinolin-6-yl}oxy)methyl]pyridazin-4(1H)-one] here?
**A.** < 0.1 µM

**Q.** Which IC50 does the source give for CCn1cc(-n2ccc(=O)c(COc3ccc4ncc(-c5ccc(F)cc5)cc4c3)n2)cn1 [Example 78, 1-(1-ethyl-1H-pyrazol-4-yl)-3-({[3-(4-fluorophenyl)quinolin-6-yl]oxy}methyl)pyridazin-4(1H)-one] here?
**A.** < 0.1 µM

**Q.** For CCn1cc(-n2ccc(=O)c(COc3ccc4ncc(-c5ccc(OC)cc5)cc4c3)n2)cn1 [Example 79, 1-(1-ethyl-1H-pyrazol-4-yl)-3-({[3-(4-methoxyphenyl)quinolin-6-yl]oxy}methyl)pyridazin-4(1H)-one], which IC50 is on record?
**A.** < 0.1 µM

**Q.** Which IC50 does the source give for CCn1cc(-n2ccc(=O)c(COc3ccc4ncc(-c5ccncc5)cc4c3)n2)cn1 [Example 80, 1-(1-ethyl-1H-pyrazol-4-yl)-3-{[(3-pyridin-4-ylquinolin-6-yl)oxy]methyl}pyridazin-4(1H)-one] here?
**A.** < 0.1 µM

**Q.** Which IC50 does the source give for CCn1cc(-n2ccc(=O)c(COc3ccc4ncc(-c5ccc(C#N)nc5)cc4c3)n2)cn1 [Example 81, 5-(6-{[1-(1-ethyl-1H-pyrazol-4-yl)-4-oxo-1,4-dihydropyridazin-3-yl]methoxy}quinolin-3-yl)pyridine-2-carbonitrile] here?
**A.** < 0.1 µM

**Q.** CCn1cc(-n2ccc(=O)c(COc3ccc4ncc(-c5ccc(OC)nc5)cc4c3)n2)cn1 [Example 82, 1-(1-ethyl-1H-pyrazol-4-yl)-3-({[3-(6-methoxypyridin-3-yl)quinolin-6-yl]oxy}methyl)pyridazin-4(1H)-one] was tested. Which IC50 did it give?
**A.** < 0.1 µM

**Q.** With CCn1cc(-n2ccc(=O)c(COc3ccc4ncc(-c5ccccc5F)cc4c3)n2)cn1 [Example 83, 1-(1-ethyl-1H-pyrazol-4-yl)-3-({[3-(2-fluorophenyl)quinolin-6-yl]oxy}methyl)pyridazin-4(1H)-one] as the compound, how does the IC50 read?
**A.** < 0.1 µM

**Q.** For CCn1cc(-n2ccc(=O)c(COc3ccc4ncc(-c5ccccc5C)cc4c3)n2)cn1 [Example 84, 1-(1-ethyl-1H-pyrazol-4-yl)-3-({[3-(2-methylphenyl)quinolin-6-yl]oxy}methyl)pyridazin-4(1H)-one], which IC50 is on record?
**A.** < 0.1 µM

**Q.** For CCn1cc(-n2ccc(=O)c(COc3ccc4ncc(-c5cncnc5)cc4c3)n2)cn1 [Example 85, 1-(1-ethyl-1H-pyrazol-4-yl)-3-{[(3-pyrimidin-5-ylquinolin-6-yl)oxy]methyl}pyridazin-4(1H)-one], which IC50 is on record?
**A.** < 0.1 µM

**Q.** For CCn1cc(-n2ccc(=O)c(COc3ccc4ncc(-c5cscn5)cc4c3)n2)cn1 [Example 86, 1-(1-ethyl-1H-pyrazol-4-yl)-3-({[3-(1,3-thiazol-4-yl)quinolin-6-yl]oxy}methyl)pyridazin-4(1H)-one], which IC50 is on record?
**A.** < 0.1 µM

**Q.** How did the IC50 turn out when CCn1cc(-n2ccc(=O)c(COc3ccc4ncc(-c5ccc(N6CCOCC6)nc5)cc4c3)n2)cn1 [Example 87, 1-(1-ethyl-1H-pyrazol-4-yl)-3-({[3-(6-morpholin-4-ylpyridin-3-yl)quinolin-6-yl]oxy}methyl)pyridazin-4(1H)-one] was run?
**A.** < 0.1 µM

**Q.** How did the IC50 turn out when CCn1cc(-n2ccc(=O)c(COc3ccc4ncc(-c5ccc(Cl)nc5)cc4c3)n2)cn1 [Example 88, 3-({[3-(6-chloropyridin-3-yl)quinolin-6-yl]oxy}methyl)-1-(1-ethyl-1H-pyrazol-4-yl)pyridazin-4(1H)-one] was run?
**A.** < 0.1 µM

**Q.** With CCn1cc(-n2ccc(=O)c(COc3ccc4ncc(-c5ccc(C(F)(F)F)cc5)cc4c3)n2)cn1 [Example 89, 1-(1-ethyl-1H-pyrazol-4-yl)-3-[({3-[4-(trifluoromethyl)phenyl]quinolin-6-yl}oxy)methyl]pyridazin-4(1H)-one] as the compound, how does the IC50 read?
**A.** < 0.1 µM

**Q.** Which IC50 does the source give for CCn1cc(-n2ccc(=O)c(COc3ccc4ncc(-c5cccc(F)c5)cc4c3)n2)cn1 [Example 90, 1-(1-ethyl-1H-pyrazol-4-yl)-3-({[3-(3-fluorophenyl)quinolin-6-yl]oxy}methyl)pyridazin-4(1H)-one] here?
**A.** < 0.1 µM

**Q.** Which IC50 does the source give for CCn1cc(-n2ccc(=O)c(COc3ccc4ncc(-c5ccccc5)cc4c3)n2)cn1 [Example 91, 1-(1-ethyl-1H-pyrazol-4-yl)-3-{[(3-phenylquinolin-6-yl)oxy]methyl}pyridazin-4(1H)-one] here?
**A.** < 0.1 µM

**Q.** With Cn1cc(-n2ccc(=O)c(COc3ccc4ncc(-c5cnn(C6CN(C(=O)OC(C)(C)C)C6)c5)cc4c3)n2)cn1 [Example 92, tert-Butyl 3-[4-(6-{[1-(1-methyl-1H-pyrazol-4-yl)-4-oxo-1,4-dihydropyridazin-3-yl]methoxy}quinolin-3-yl)-1H-pyrazol-1-yl]azetidine-1-carboxylate] as the compound, how does the IC50 read?
**A.** < 0.1 µM

**Q.** Which IC50 does the source give for Cn1cc(-n2ccc(=O)c(COc3ccc4ncc(-c5cnn(C6CNC6)c5)cc4c3)n2)cn1 [Example 93, 3-[({3-[1-(Azetidin-3-yl)-1H-pyrazol-4-yl]quinolin-6-yl}oxy)methyl]-1-(1-methyl-1H-pyrazol-4-yl)pyridazin-4(1H)-one] here?
**A.** < 0.1 µM

**Q.** For Cn1cc(-n2ccc(=O)c(COc3ccc4ncc(-c5cnn(C6CCNCC6)c5)cc4c3)n2)cn1 [Example 94, 1-(1-methyl-1H-pyrazol-4-yl)-3-[({3-[1-(piperidin-4-yl)-1H-pyrazol-4-yl]quinolin-6-yl}oxy)methyl]pyridazin-4(1H)-one], which IC50 is on record?
**A.** < 0.1 µM

**Q.** COC(=O)c1cnc2ccc(OCc3nn(-c4cnn(C)c4)ccc3=O)cc2c1 [Example 95, Methyl 6-{[1-(1-methyl-1H-pyrazol-4-yl)-4-oxo-1,4-dihydropyridazin-3-yl]methoxy}quinoline-3-carboxylate] was tested. Which IC50 did it give?
**A.** 0.1 to 1 µM

**Q.** Cn1cc(-n2ccc(=O)c(COc3ccc4ncc(-c5cnn(C6COC6)c5)cc4c3)n2)cn1 [Example 96, 1-(1-Methyl-1H-pyrazol-4-yl)-3-[({3-[1-(oxetan-3-yl)-1H-pyrazol-4-yl]quinolin-6-yl}oxy)methyl]pyridazin-4(1H)-one] was tested. Which IC50 did it give?
**A.** < 0.1 µM

**Q.** Cn1cc(-n2ccc(=O)c(COc3ccc4nccc(Cl)c4c3)n2)cn1 [Example 97, 3-{[(4-Chloroquinolin-6-yl)oxy]methyl}-1-(1-methyl-1H-pyrazol-4-yl)pyridazin-4(1H)-one] was tested. Which IC50 did it give?
**A.** < 0.1 µM

**Q.** With CCc1ccnc2ccc(OCc3nn(-c4cnn(C)c4)ccc3=O)cc12 [Example 98, 3-{[(4-Ethylquinolin-6-yl)oxy]methyl}-1-(1-methyl-1H-pyrazol-4-yl)pyridazin-4(1H)-one] as the compound, how does the IC50 read?
**A.** < 0.1 µM

**Q.** Which IC50 does the source give for COCCOc1cnc2ccc(SCc3nn(-c4cnn(C)c4)ccc3=O)cc2c1 [Example 99, 3-({[3-(2-Methoxyethoxy)quinolin-6-yl]sulfanyl}methyl)-1-(1-methyl-1H-pyrazol-4-yl)pyridazin-4(1H)-one] here?
**A.** < 0.1 µM

**Q.** Which IC50 does the source give for CCOc1cnc2ccc(SCc3nn(-c4cnn(C)c4)ccc3=O)cc2c1 [Example 100, 3-{[(3-ethoxyquinolin-6-yl)sulfanyl]methyl}-1-(1-methyl-1H-pyrazol-4-yl)pyridazin-4(1H)-one] here?
**A.** < 0.1 µM

**Q.** For Cn1cc(-n2ccc(=O)c(CSc3ccc4ncccc4c3)n2)cn1 [Example 101, 1-(1-Methyl-1H-pyrazol-4-yl)-3-[(quinolin-6-ylsulfanyl)methyl]pyridazin-4(1H)-one], which IC50 is on record?
**A.** < 0.1 µM

**Q.** Which IC50 does the source give for COCCOc1cnc2ccc(NCc3nn(-c4cnn(C)c4)ccc3=O)cc2c1 [Example 102, 3-({[3-(2-Methoxyethoxy)quinolin-6-yl]amino}methyl)-1-(1-methyl-1H-pyrazol-4-yl)pyridazin-4(1H)-one] here?
**A.** < 0.1 µM

**Q.** Which IC50 does the source give for CCOc1cnc2ccc(NCc3nn(-c4cnn(C)c4)ccc3=O)cc2c1 [Example 103, 3-{[(3-ethoxyquinolin-6-yl)amino]methyl}-1-(1-methyl-1H-pyrazol-4-yl)pyridazin-4(1H)-one] here?
**A.** 0.1 to 1 µM

**Q.** For Cn1cc(-n2ccc(=O)c(CNc3ccc4ncccc4c3)n2)cn1 [Example 104, 1-(1-Methyl-1H-pyrazol-4-yl)-3-[(quinolin-6-ylamino)methyl]pyridazin-4(1H)-one], which IC50 is on record?
**A.** < 0.1 µM

**Q.** With Cn1cc(-n2ccc(=O)c(COc3ccc4ncsc4c3)n2)cn1 [Example 105, 3-[(1,3-Benzothiazol-6-yloxy)methyl]-1-(1-methyl-1H-pyrazol-4-yl)pyridazin-4(1H)-one] as the compound, how does the IC50 read?
**A.** < 0.1 µM

**Q.** COCCOc1cnc2ccc(OCc3nn(-c4cnn(C)c4)ccc3=O)cc2n1 [Example 106, 3-({[3-(2-methoxyethoxy)quinoxalin-6-yl]oxy}methyl)-1-(1-methyl-1H-pyrazol-4-yl)pyridazin-4(1H)-one] was tested. Which IC50 did it give?
**A.** < 0.1 µM

**Q.** For Cn1cc(-n2ccc(=O)c(COc3ccc4ncc5c(c4c3)OCCO5)n2)cn1 [Example 107, 3-[(2,3-dihydro[1,4]dioxino[2,3-c]quinolin-9-yloxy)methyl]-1-(1-methyl-1H-pyrazol-4-yl)pyridazin-4(1H)-one], which IC50 is on record?
**A.** < 0.1 µM

**Q.** For CN(Cc1nn(-c2cnn(C)c2)ccc1=O)c1ccc2ncccc2c1 [Example 108, 1-(1-Methyl-1H-pyrazol-4-yl)-3-{[methyl(quinolin-6-yl)amino]methyl}pyridazin-4(1H)-one], which IC50 is on record?
**A.** < 0.1 µM

**Q.** Cn1cc(-n2ccc(=O)c(COc3ccc4ncc(C(=O)N5CCOCC5)cc4c3)n2)cn1 [Example 109, 1-(1-methyl-1H-pyrazol-4-yl)-3-({[3-(morpholin-4-ylcarbonyl)quinolin-6-yl]oxy}methyl)pyridazin-4(1H)-one] was tested. Which IC50 did it give?
**A.** 1 to 3 µM

**Q.** With Cn1cc(-n2ccc(=O)c(COc3ccc4ncc(NC(=O)OC(C)(C)C)cc4c3)n2)cn1 [Example 110, tert-butyl (6-{[1-(1-methyl-1H-pyrazol-4-yl)-4-oxo-1,4-dihydropyridazin-3-yl]methoxy}quinolin-3-yl)carbamate] as the compound, how does the IC50 read?
**A.** < 0.1 µM

**Q.** For Cn1cc(-n2ccc(=O)c(COc3ccc4ncc(NC(=O)Nc5cnc6ccc(OCc7nn(-c8cnn(C)c8)ccc7=O)cc6c5)cc4c3)n2)cn1 [Example 111, 1,3-bis(6-{[1-(1-methyl-1H-pyrazol-4-yl)-4-oxo-1,4-dihydropyridazin-3-yl]methoxy}quinolin-3-yl)urea], which IC50 is on record?
**A.** < 0.1 µM
